# Measurements published in patent publication US11826332B2, “Antimicrobial compositions and uses thereof” (Board of Regents, The University of Texas System, priority 2016, dated 2023).
# Assays:
# [1] = system: methicillin-resistant Staphylococcus aureus (MRSA) biofilm; assay: Biofilm eradication model on silicone discs, time to complete eradication; type: cell-based; settings: Table 2; disinfecting solutions pH 4.0-4.5; >120 = not completely eradicated within 120 minutes exposure
# [2] = system: multidrug-resistant Pseudomonas aeruginosa (PS) biofilm; assay: as above; type: cell-based; settings: Table 2; disinfecting solutions pH 4.0-4.5; >120 = not completely eradicated within 120 minutes exposure
# [3] = system: Candida albicans (CA) biofilm; assay: as above; type: cell-based; settings: Table 2; disinfecting solutions pH 4.0-4.5; >120 = not completely eradicated within 120 minutes exposure
# [4] = system: Candida glabarata (CG) biofilm; assay: as above; type: cell-based; settings: Table 2; disinfecting solutions pH 4.0-4.5; >120 = not completely eradicated within 120 minutes exposure
# MRSA biofilm = assay: Modified Kuhn's model, quantitative time-to-kill biofilm eradication; type: cell-based, Staphylococcus aureus; settings: 60 minutes exposure
# Procedure: In vitro antimicrobial assessments of PG, CAP, and PG+CAP solutions were conducted using an established time-to-kill biofilm eradication model, the modified Kuhn's model (Kuhn et al., 2002). Briefly, 1 cm diameter silicone discs, were placed into a 24-well tissue culture plate and incubated with donor human plasma at 37° C. for 24 hours. The plasma was then removed, replaced with 1 mL of 5.5×10^5 CFU of bacterial (MRSA, Pseudomonas aeruginosa) or yeast (Candida albicans) inocula and incubated at 37 C for an additional 24 hrs. Inoculum was removed and the discs were washed shaking at 100 rpm for 30 minutes in 0.9% sterile saline in order to remove any planktonic organisms. After washing, discs were exposed to 1 mL various disinfectant solutions and incubated at 37° C. for 30 min or 60 min. Saline flush solution was used a negative control. […] Resulting solutions were quantitatively cultured by plating 100 μL onto Muller-Hinton (for bacteria) or Sabouraud dextrose (for yeast) agar. […]
# Statistical analyses: The Kruskal-Wallis test was used to determine whether there was a significant difference in the medians in any of the lock solutions tested. Pairwise comparisons were assessed using the Mann-Whitney U test to […] performance of PG+CAP and CAP lock solutions at specified time points. […]
# [5] = CRC Handbook of Chemistry and Physics; cited from earlier work
# [6] = system: methicillin resistant Staphylococcus aureus (MRSA); assay: Disinfection of colonized urinary catheter external surface, transient contact; type: cell-based; settings: in 1.5% CMC solution; transient contact exposure of a few minutes; three 1 cm catheter segments
# [7] = system: Escherichia coli (E. coli); assay: as above; type: cell-based; settings: in 1.5% CMC solution; transient contact exposure of a few minutes; three 1 cm catheter segments
# [8] = system: vancomycin resistant Enterococcus (VRE); assay: as above; type: cell-based; settings: in 1.5% CMC solution; transient contact exposure of a few minutes; three 1 cm catheter segments
# [9] = system: Candida albicans (C. albicans); assay: as above; type: cell-based; settings: in 1.5% CMC solution; transient contact exposure of a few minutes; three 1 cm catheter segments
SMILES,"time to complete biofilm eradication, MRSA [1] [min]","time to complete biofilm eradication, PS [2] [min]","time to complete biofilm eradication, CA [3] [min]","time to complete biofilm eradication, CG [4] [min]",reductions in viable cells in MRSA biofilm (MRSA biofilm),pK of CAP [5],"Median recoveries, MRSA [6]","Median recoveries, E. coli [7]","Median recoveries, VRE [8]","Median recoveries, C. albicans [9]"
"CCCCCCCC(=O)O [0.4% Caprylic Acid (CAP), caprylic acid (octanoic acid)]",120,60,120,60,"able to reduce, but not completely eradicate",approximately 4.8,,,,
"OO [0.3% H2O2, hydrogen peroxide]",,,,,,,0 CFU/cm of catheter,2700 CFU/cm of catheter,">50,000 CFU/cm of catheter",">50,000 CFU/cm of catheter"
"O=[N+]([O-])OCC(CO[N+](=O)[O-])O[N+](=O)[O-] [0.03% nitroglycerin (GTN), glyceryl trinitrate]",>120,>120,>120,>120,,,,,,
